Target: Indoleamine 2,3-dioxygenase 1 (Homo sapiens, UniProt P14902)
Test: Inhibitory Activity Assay: The tested compounds and the reference compounds are dissolved in DMSO to prepare a high concentration of storage solution. The stock solution of reference compound was diluted with DMSO to prepare a 100× solution. In the first column of the working plate, 8 μL above tested compounds and 8 μL 100× reference compound were respectively added as the highest concentration, and then the highest concentrations were subjected to three times dilution to obtain 11 concentrations and prepare 100× solution. 0.5 μL solution was transferred from the above plate to the detection plate. To each well was added 0.5 μL 100× compound solution. For HPE and ZPE control wells, 0.5 μL 100% DMSO was added.25 μL 2×IDO1 (His-tag) enzyme solution (containing L-ascorbic acid, methylene blue, and catalase) was added to each well. 25 μL reaction solution without IDO1 (His-tag) enzyme was added into HPE control well. The test plate was centrifugated at 1000 rpm for 1 minute to mix well. Then, the test plate was incubated at room temperature for 30 minutes. 25 μL above 2× substrate (L-tryptophan) solution was added to each well. The test plate was centrifugated at 1000 rpm for 1 minute to mix well. The detection plate was placed on ELISA (SpectraMax M5e), the temperature was set at 25° C., and the absorbance (OD value) was measured at 320 nm every 10 minutes till 60 minutes.

Sequence of Indoleamine 2,3-dioxygenase 1 (P14902 whole entry): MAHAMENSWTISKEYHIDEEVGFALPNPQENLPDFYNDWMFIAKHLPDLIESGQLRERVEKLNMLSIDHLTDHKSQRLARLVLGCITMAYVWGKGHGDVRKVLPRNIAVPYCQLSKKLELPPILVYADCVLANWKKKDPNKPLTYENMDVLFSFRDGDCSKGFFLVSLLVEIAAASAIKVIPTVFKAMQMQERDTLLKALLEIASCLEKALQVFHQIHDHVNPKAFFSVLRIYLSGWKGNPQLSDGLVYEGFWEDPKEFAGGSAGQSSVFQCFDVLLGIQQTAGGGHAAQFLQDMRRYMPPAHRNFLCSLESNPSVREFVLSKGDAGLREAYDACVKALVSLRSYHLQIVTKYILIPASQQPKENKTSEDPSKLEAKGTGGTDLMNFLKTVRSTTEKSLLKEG

IC50: 107 nM
SMILES: NS(=O)(=O)N1CCC(CSc2nonc2C(=NO)Nc2ccc(F)c(Br)c2)C1 (stereo unspecified)
